Read-outs that look alike come from different tables or passages of the source.
Key:
[1] = system: male laboratory rats (OFA, Sprague-Dawley 200 g); assay: Anticoagulant power of each configurational stereoisomer of bromadiolone (coagulation time, Quick time, of plasma of tube-fed rats); format: in vivo, rat; conditions: for anticoagulant effect (coagulation time, Quick time): 1.5 mg of enantiomer per kg rat by tube feeding on D0, up to D3, FIG. 4
Experimental: The following are administered to male laboratory rats (OFA, Sprague-Dawley 200 g) by tube feeding on D0: a composition comprising enantiomer E1 of said diastereoisomer D12 in a proportion of 1.5 mg of said enantiomer E1 per kilogram of rat; or a composition comprising enantiomer E2 of said diastereoisomer D1,2 in a proportion of 1.5 mg of said enantiomer E2 per kilogram of rat; or a composition comprising enantiomer E3 of said diastereoisomer D3,4 in a proportion of 1.5 mg of said enantiomer E3 per kilogram of rat; or a composition comprising enantiomer E4 of said diastereoisomer D3,4 in a proportion of 1.5 mg of said enantiomer E4 per kilogram of rat.
The rats receive vitamin K1 daily in a proportion of 0.1 unit of vitamin per 200 g of rat so as to keep them alive for 7 days or 14 days. However, the administration of vitamin K1 is stopped 48 hours before the rats are euthanized so as to allow evaluation of the Quick time without interference with the supplementation by tube feeding.
On these rats, blood is collected on D1, D3, D7 and D14 and measurement of the coagulation time (Quick time, expressed in seconds) of the plasma is performed using the “Neoplastine CI Determination of Prothrombin Time” kit (Diagnostica Stago, Asnière, France) by measurement on a Thrombotimer Option 2 Plus machine (Behnk Electronik, Norderstedt, Germany).

[2] = format: in vivo, rat; conditions: for concentration of each enantiomer in rat liver: mixture of diastereoisomers, about 13 mg/kg per os on D0, from D+3, FIG. 3
Experimental: Separation of the configurational stereoisomers of bromadiolone is performed by high-pressure liquid chromatography (HPLC) on a LUX® Cellulose-1 chiral column (Phenomenex, Le Pecq, France) containing a chiral stationary phase constituted of particles of cellulose tris(3,5-dimethylphenyl carbamate), said particles having a mean size of 3 μm and having a mean pore size of 1000 Å. A mixture formed from acetonitrile (A) and water comprising 0.1% by volume of formic acid (B), with an A/B volume ratio of 80/20 and with a flow rate of 0.25 mL/minute in the chromatography column, is used as mobile phase. The concentration of the composition to be analysed is 1 μg of bromadiolone per millilitre of acetonitrile and the volume injected onto the column is 1 μL. Detection is performed by tandem mass spectrometry (MS/MS) in negative electrospray ionization (ESI) mode. The temperature of the nebulizer gas is 350° C. and its flow rate is 8 L/minute. The pressure of the nebulizer gas is brought to 2700 hPa. In particular, the MRM (“Multiple Reaction Monitoring”) transitions m/z 525.1→250.1 and m/z 525.1→181, corresponding to the bromadiolone signal, are detected.
About 0.525 g (±0.025 g) of rat liver is weighed out accurately and placed in a 50 mL polypropylene tube. 10 mL of acetone are added and the suspension is homogenized using an Ultra-Turrax® homogenizer/disperser for a time of about 30 seconds. The homogenizer/disperser shaft is rinsed with hot water and then twice with 20 mL of acetone in a polypropylene tube. The homogenate is centrifuged for 5 minutes at a centrifugation speed of 3000 rpm (revolutions per minute). The supernatant is collected and transferred into a test tube. The sample is subjected to evaporation under a stream of nitrogen (N2) at a temperature of 40° C. so as to form a dry extract.
1 mL of acetonitrile is added to the tube containing the dry extract so as to dissolve it. The acetonitrile solution is washed twice successively with 1 mL of hexane. The lipid-free extract is dried under a stream of nitrogen (N2) at a temperature of 40° C. and is then taken up in 0.5 mL of methanol and dissolved by vortex stirring. 0.5 mL of ultra-pure (Milli-Q) water is then added. The sample is vortex-homogenized.
1 mL of dichloromethane (CH2Cl2), then 1 mL of methanol (CH3OH), then 1 mL of ultra-pure (Milli-Q) water are passed through an Oasis HLB 1 cc cartridge (WAT094225, Waters). The lipid-free liver extract (1 mL MeOH/Milli-Q H2O) containing bromadiolone is then loaded onto the top of the preconditioned cartridge. The liver extract penetrates through the cartridge by gravity on contact with the solid phase of the cartridge. 1 mL of washing solution formed from methanol (CH3OH) and ultra-pure water (H2O) in a 90/10 volume proportion is loaded onto the top of the cartridge. The cartridge is dried by suction under vacuum connected to the bottom of the cartridge. 1 mL of eluting solution formed from dichloromethane (CH2Cl2) and methanol (CH3OH) in a 90/10 volume proportion is then loaded onto the top of the cartridge and an eluate comprising bromadiolone is collected at the bottom of the cartridge. The solvent of the eluate is evaporated off under a stream of nitrogen (N2) at a temperature of 40° C. The sample is taken up in 0.5 mL of acetonitrile and the acetonitrile solution containing bromadiolone is filtered through a 0.2 μm filter. […]

[3] = summary statement of the inventors

With `O=c1oc2ccccc2c(O)c1C(CC(O)c1ccc(-c2ccc(Br)cc2)cc1)c1ccccc1` (single isomer, unassigned) [enantiomer E4, 3-[3-(4′-bromo[1,1′-biphenyl]-4-yl)-3-hydroxy-1-phenylpropyl]-4-hydroxy-2H-1-benzopyran-2-one] the “anticoagulant effect (coagulation time, Quick time)” value ([1]; listed as E4) was “sufficient to maintain an anticoagulant effect at least up to D3”, the “anticoagulant activity compared with enantiomer E3” value [1, 3] was “higher anticoagulant activity than the anticoagulant activity of said enantiomer E3” and the “concentration of each enantiomer in rat liver” value (from here on “concentration”) ([2]; listed as E4) was “only enantiomer E1 remains in the rat liver”. The “persistence in the liver of target rodent pests” value [2, 3] was “sufficient to be rodenticidal”.
In the case of `O=c1oc2ccccc2c(O)c1C(CC(O)c1ccc(-c2ccc(Br)cc2)cc1)c1ccccc1` (single isomer, unassigned) [enantiomer E2, 3-[3-(4′-bromo[1,1′-biphenyl]-4-yl)-3-hydroxy-1-phenylpropyl]-4-hydroxy-2H-1-benzopyran-2-one], the “concentration” value ([2]; listed as E2) was “only enantiomer E1 remains in the rat liver”.
In the case of `O=c1oc2ccccc2c(O)c1C(CC(O)c1ccc(-c2ccc(Br)cc2)cc1)c1ccccc1` (single isomer, unassigned) [enantiomer E3, 3-[3-(4′-bromo[1,1′-biphenyl]-4-yl)-3-hydroxy-1-phenylpropyl]-4-hydroxy-2H-1-benzopyran-2-one], the “anticoagulant effect (coagulation time, Quick time)” value ([1]; listed as E3) was “contrary to the ingestion of 1.5 mg of said enantiomer E3” and the “concentration” value ([2]; listed as E3) was “only enantiomer E1 remains in the rat liver”.
With `O=c1oc2ccccc2c(O)c1C(CC(O)c1ccc(-c2ccc(Br)cc2)cc1)c1ccccc1` (single isomer, unassigned) [enantiomer E1, 3-[3-(4′-bromo[1,1′-biphenyl]-4-yl)-3-hydroxy-1-phenylpropyl]-4-hydroxy-2H-1-benzopyran-2-one] the “concentration” value ([2]; listed as E1) was “remains in the rat liver”.
